From patent US9051300B2, “Herbicides” (Syngenta Limited, priority 2009, dated 2015)

Experiments:
Type in all cases: in vivo
[1] = tested on: Alopecurus myosuroides (ALOMY); assay: Post-emergence herbicidal activity, glasshouse pot test; conditions: 312 h, evaluated after 13 days, 100=total damage to plant, 0=no damage
Description: (§1) Seeds of a variety of test species are sown in standard soil in pots. After cultivation for one day (pre-emergence) or after 8 days cultivation (post-emergence) under controlled conditions in a glasshouse (at 24/16° C., day/night; 14 hours light; 65% humidity), the plants are sprayed with an aqueous spray solution derived from the formulation of the technical active ingredient in acetone/water (50:50) solution containing 0.5% Tween 20 (polyoxyethylene sorbitan monolaurate, CAS RN 9005-64-5). The test plants are then grown in a glasshouse under controlled conditions in a glasshouse (at 24/16° C., day/night; 14 hours light; 65% humidity) and watered twice daily. After 13 days for pre and post-emergence, the test is evaluated (100=total damage to plant; 0=no damage to plant). Lolium perenne (LOLPE), Alopecurus myosuroides (ALOMY), Echinochloa crus-galli (ECHCG), Avena fatua (AVEFA) Post-Emergence Activity

[2] = tested on: Avena fatua (AVEFA); assay: as above; conditions: 312 h, evaluated after 13 days, 100=total damage to plant, 0=no damage
Description: as §1

[3] = tested on: Echinochloa crus-galli (ECHCG); assay: as above; conditions: 312 h, evaluated after 13 days, 100=total damage to plant, 0=no damage
Description: as §1

[4] = tested on: Lolium perenne (LOLPE); assay: as above; conditions: 312 h, evaluated after 13 days, 100=total damage to plant, 0=no damage
Description: as §1

[5] = tested on: Alopecurus myosuroides (ALOMY); assay: Pre-emergence herbicidal activity, glasshouse pot test; conditions: rate not printed (columns shifted), evaluated after 13 days, 100=total damage to plant, 0=no damage
Description: as §1, with “Pre-Emergence” for “Post-Emergence”

[6] = tested on: Avena fatua (AVEFA); assay: as above; conditions: rate not printed (columns shifted), evaluated after 13 days, 100=total damage to plant, 0=no damage
Description: as §1, with “Pre-Emergence” for “Post-Emergence”

[7] = tested on: Echinochloa crus-galli (ECHCG); assay: as above; conditions: rate not printed (columns shifted), evaluated after 13 days, 100=total damage to plant, 0=no damage
Description: as §1, with “Pre-Emergence” for “Post-Emergence”

[8] = tested on: Lolium perenne (LOLPE); assay: as above; conditions: rate not printed (columns shifted), evaluated after 13 days, 100=total damage to plant, 0=no damage
Description: as §1, with “Pre-Emergence” for “Post-Emergence”

[9] = tested on: Winter Wheat variety 'Hereward'; assay: Crop damage to winter wheat, post-emergence spray; conditions: 250 g/ha, no safener, evaluated after 13 days, 100=total damage to plant, 0=no damage
Description: Seeds of the Winter Wheat variety ‘Hereward’ were sown in standard soil in pots. After 8 days cultivation under controlled conditions in a glasshouse (at 24/16° C., day/night; 14 hours light; 65% humidity), the plants were sprayed post-emergence with an aqueous spray solution derived from the formulation of the technical active ingredient in acetone/water (50:50) solution containing 0.5% Tween 20 (polyoxyethylene sorbitan monolaurate, CAS RN 9005-64-5). The test plants were then grown in a glasshouse under controlled conditions in a glasshouse (at 24/16° C., day/night; 14 hours light; 65% humidity) and watered twice daily. After 13 days for pre and post-emergence, the test was evaluated (100=total damage to plant; 0=no damage to plant).

[10] = tested on: Winter Wheat variety 'Hereward'; assay: Crop damage to winter wheat seed treated with safener cloquintocet mexyl, post-emergence spray; conditions: 250 g/ha, seed treated with cloquintocet mexyl 0.5 g/kg seed, evaluated after 13 days, 100=total damage, 0=no damage
Description: Seeds of the Winter Wheat variety ‘Hereward’ were seed treated with a wettable powder formulation of the cereal herbicide safener, cloquintocet mexyl, at a rate of 0.5 grams per kilogram of dry seed prior to the initiation of glasshouse testing. One seed was sown per 1.5 inch plastic pot into a sandy loam soil at a depth of 1 cm, 8 days prior to application of the test compounds and was watered and grown under controlled conditions in a glasshouse (at 24/16° C., day/night; 14 hours light; 65% humidity). The plants were sprayed post-emergence with an aqueous spray solution derived from the formulation of the technical active ingredient in acetone/water (50:50) solution containing 0.5% Tween 20 (polyoxyethylene sorbitan monolaurate, CAS RN 9005-64-5). The test plants were then grown in a glasshouse under controlled conditions in a glasshouse (at 24/16° C., day/night; 14 hours light; 65% humidity) and watered twice daily. After 13 days for pre and post-emergence, the test was evaluated (100=total damage to plant; 0=no damage to plant).

Row | SMILES | pest or weed control at 250 g/ha [1] [%] | pest or weed control at 250 g/ha [2] [%] | pest or weed control at 250 g/ha [3] [%] | pest or weed control at 250 g/ha [4] [%] | Pre-Emergence Activity ALOMY (damage to plant) [5] | Pre-Emergence Activity AVEFA (damage to plant) [6] | Pre-Emergence Activity ECHCG (damage to plant) [7] | Pre-Emergence Activity LOLPE (damage to plant) [8] | Winter Wheat (Hereward) (damage to plant) [9] | Winter Wheat (Hereward) + cloquintocet mexyl (damage to plant) [10]
1 | Cc1sc(-c2ccc(Cl)cc2)nc1C1C(=O)CC(Cc2ccc(F)cn2)C1=O (stereo not shown) [Compound A12] | 100 | 90 | 100 | 100 | 100 | 90 | 100 | 100 | 70 | 80
2 | Cc1cnc(-c2ccc(Cl)cc2)nc1C1C(=O)C/C(=C\C2CCOCC2)C1=O (stereo not shown) [Compound A9] | 20 | 60 | 100 | 40 | 10 | 50 | 100 | 70 | 50 | 0
3 | Cc1sc(-c2ccc(Cl)cc2)cc1C1C(=O)CC(CC2CCOC2)C1=O (stereo not shown) [Compound A5] | 50 | 50 | 80 | 30 |  |  |  |  |  | 
4 | Cc1sc(-c2ccc(Cl)cc2)nc1C1C(=O)CC(CC2CCOCC2)C1=O (stereo not shown) [Compound A18] | 100 | 100 | 100 | 100 | 80 | 90 | 100 | 100 | 80 | 90
5 | Cc1sc(COc2ccc(Cl)cc2)nc1C1C(=O)C/C(=C\C2CCOCC2)C1=O (stereo not shown) [Compound A3] | 10 | 0 | 20 | 0 |  |  |  |  |  | 
6 | Cc1sc(-c2ccc(Cl)cc2)cc1C1C(=O)C/C(=C\C2CCOCC2)C1=O (stereo not shown) [Compound A10] | 20 | 0 | 70 | 10 |  |  |  |  |  | 
7 | CCc1sc(-c2ccc(Cl)cc2)nc1C1C(=O)C/C(=C\C2CCOCC2)C1=O (stereo not shown) [Compound A7] | 90 | 100 | 100 | 60 | 70 | 70 | 100 | 80 | 90 | 40
8 | Cc1cc(-c2ccc(Cl)cc2)nn1C1C(=O)C/C(=C\c2ccc(F)cn2)C1=O (stereo not shown) [Compound A21] | 70 | 30 | 90 | 60 | 40 | 10 | 90 | 90 | 20 | 10
9 | Cc1sc(-c2ccc(C(C)C)cc2)nc1C1C(=O)C/C(=C\C2CCOCC2)C1=O (stereo not shown) [Compound A1] | 10 | 0 | 10 | 0 | 10 | 0 | 50 | 10 | 20 | 0
10 | Cc1sc(-c2ccccc2)nc1C1C(=O)CC(CC2CCOCC2)C1=O (stereo not shown) [Compound A17] | 90 | 90 | 100 | 100 | 70 | 50 | 100 | 100 | 60 | 40
11 | Cc1sc(-c2ccc(Cl)cc2)cc1C1C(=O)CC(CC2CCOCC2)C1=O (stereo not shown) [Compound A6] | 50 | 0 | 60 | 0 |  |  |  |  | 10 | 0
12 | Cc1sc(-c2ccc(Br)cn2)nc1C1C(=O)C/C(=C\C2CCOCC2)C1=O (stereo not shown) [Compound A4] | 20 | 0 | 70 | 0 |  |  |  |  |  | 
13 | Cc1sc(-c2ccc(Cl)cc2)nc1C1C(=O)C/C(=C\C2CCOCC2)C1=O (stereo not shown) [Compound A24] | 100 | 90 | 100 | 90 | 60 | 60 | 100 | 100 | 70 | 0
14 | Cc1sc(-c2ccc(Cl)cc2)nc1C1C(=O)C/C(=C/c2ccccn2)C1=O (stereo not shown) [Compound A15] | 10 | 0 | 20 | 0 |  |  |  |  | 10 | 0
15 | Cc1sc(-c2ccc(Cl)cc2)nc1C1C(=O)C/C(=C\c2ccc(F)cn2)C1=O (stereo not shown) [Compound A13] | 10 | 10 | 20 | 0 |  |  |  |  |  | 
16 | Cc1sc(-c2ccc(Cl)cc2)nc1C1C(=O)C/C(=C\c2ccoc2)C1=O (stereo not shown) [Compound A11] | 10 | 0 | 80 | 0 |  |  |  |  |  | 
17 | Cc1sc(COc2ccc(Cl)cc2)nc1C1C(=O)CC(CC2CCOCC2)C1=O (stereo not shown) [Compound A2] | 10 | 0 | 20 | 10 |  |  |  |  |  | 
18 | Cc1ccc2c(cnn2C)c1C1C(=O)CC(CC2CCOCC2)C1=O (stereo not shown) [Compound A19] | 20 | 10 | 40 | 0 |  |  |  |  |  | 
